Experiments:
ACC = experiment: Thermal shift assay of liver proteins, ACC; type: binding, mice
Experimental: The liver samples (50 mg) were homogenized and vortexed in ice-cold RIPA buffer containing phosphatase (Fisher Scientific, #PIA32957) and protease (Fisher Scientific, #PIA32953) inhibitor cocktails. Protein concentration was determined using a […] (Pierce). Protein lysates were mixed with LDS Sample Buffer (1:4) and heated for 2 min at 95° C. The lysates were then loaded and electrophoresed on a 10% Tris-Glycine eXtended (BioRad, Criterion #5671034). The proteins were electrophoretically transferred to a PVDF membrane (BioRad, #1620177), and the transfer was confirmed by staining the membrane with 0.1% Ponceau S solution (Sigma-Aldrich, #6226-79-5). The membrane was then blocked for 90 min at RT with 5% nonfat dry milk (LabScientific) or 5% BSA (MilliporeSigma) in TBS-T (tris buffered saline+0.1% Tween 20 [Thermo Fisher Scientific]). […] Quantitative densitometric analysis was performed using Image Lab software (Bio-Rad).
Thermal Shift Assay Proteins were extracted from the liver powder (50 mg) with 1 mL of phosphate-buffered saline (PBS—Gibco, Paisley, UK) containing phosphatase (Fisher Scientific, #PIA32957) and protease (Fisher Scientific, #PIA32953) inhibitors. […] The Supernatants were transferred to new tubes and analyzed by western blot as described above.

[1] = system: HFD model in C57BL/6J mice; experiment: HPLC-MS analysis of plasma cholesterol, cholesterol-ester and triglycerides in HFD mice; type: in vivo; settings: 50 mg/kg
Description: Male C57BL/6J mice were purchased from Jackson Laboratory (Bar Harbor, ME, USA). Mice were acclimated for a week before being randomized to receive either a low-fat diet (LFD) or a high-fat diet (HFD) purchased from Research Diets (New Brunswick, NJ, USA). Obesity was induced by the HFD (D12492, with 60% of the adjusted calories derived from fat) for 16 weeks beginning at age of 8 weeks. Age-matched controls were maintained on a LFD (D12450J, matching the sucrose level of D12492). While maintaining the diet, mice under HFD were divided into 4 groups (n=8 per group) and were treated every 2 days by oral gavage for 7 weeks with 100 μl of 11D3 (50 mg/kg), 11U3 (50 mg/kg), or 11U3-2M (50 mg/kg) formulated in a solution of 2:1 of polyethylene glycol (Fisher Scientific, PEG400 #p167-1) and saline, containing 1.5% of octanoic acid (TCI, #00027). Control groups received 100 μl of PEG400/saline/octanoic acid as the vehicle (Veh). LFD mice were divided into 2 groups (n=8 per group) and treated with veh or 11D3 (50 mg/kg) to detect any effect of natural FuFA in LFD. Mice were grouped to start at the same weight mean before starting the treatment. During and before gavage treatment, mice were fed ad libitum and given free access to water. Food intake, water consumption, and mouse weight were monitored every week. At 20 weeks (4 weeks of treatment), a glucose tolerance test (GTT) was performed on all cohorts. After 2 weeks of recovery (22 weeks), a whole-body composition was performed using EchoMRI™-100H. At the end of the 23 weeks study, mice were euthanized with isoflurane followed by laparotomy. The blood was collected, and mice were perfused using 0.9% NaCl. Organs were harvested and snap-frozen in liquid nitrogen gas and stored at −80° C. for further analysis. […]
Plasma TG were analyzed by HPLC-HR-MS/MS using a C8 Luna column (2×150 mm, 5 μm, Phenomenex) with a flow rate of […] and mobile phases of acetonitrile/water (9:1, v/v) 0.1% ammonium acetate (solvent A) and isopropanol/acetonitrile 0.1% ammonium acetate (7:3, v/v) (solvent B). […]

CCCc1ccc(CCCCCCCCCC(C)(C)C(=O)O)o1 [11U3-2M, 2,2-Dimethyl-11-(5-propylfuran-2-yl)undecanoic acid]
ACC thermal stability (ACC; full cohorts, HFD+11U3-2M, higher temperature (52, 53.5, 55° C.)): greatly increased | ACC thermal stability compared to veh (ACC; one mouse per group, 52, 53.5 and 55° C.): higher stability | plasma TC compared to HFD+veh [1]: reduction | plasma TG reduced vs HFD+veh [1]: 16% | plasma total cholesterol-ester (TCE) reduced vs HFD+veh [1]: 33%

Reference: patent publication US20250361217A1, “FATTY ACID COMPOUNDS” (University of Pittsburgh - Of the Commonwealth System of …, priority 2022, published 2025)
